# Tests used:
# human GYS1 = human GYS1 (Homo sapiens (Human), UniProt P13807); assay: GYS1 coupled enzyme assay (PK/LDH); assay type: biochemical; conditions: recombinant hGYS1/GN1 protein; geometric mean of at least 2 assay runs
# Source text: The GYS1 coupled enzyme assay is a kinetic biochemical assay that indirectly quantifies the rate of glycogen synthesis by coupling the conversion of GYS1 substrate UDP-glucose into UDP with downstream enzymatic reactions. UDP is released from UDP-glucose as glucose monomers are linked into the growing glycogen strand by GYS1. The coupled assay then proceeds with pyruvate kinase utilizing UDP and phospho (enol) pyruvate (PEP) to form pyruvate. Lactate dehydrogenase then converts pyruvate and NADH into lactate and NAD+. Oxidation of NADH to NAD+ can be measured continuously with a plate reader by quantifying the decrease in NADH absorbance at 340 nm over time.
# Compounds that inhibit the hGYS1 enzyme and, subsequently, the downstream conversion of NADH to NAD+, were tested using assay ready plates (black, clear bottom 384 well plates) in a final DMSO reaction volume of 2.5% DMSO. The Assay Buffer contained 50 mM Tris pH 7.5, 2 mM MgCl2, and 100 mM KCl. Fresh stocks of BSA at a final concentration of 0.02% and TCEP at 1 mM were added before splitting buffer into hGYS1 buffer and substrate buffer. To the hGYS1 buffer, rabbit liver glycogen was added at a final concentration of 0.2% glycogen. Glucose-6-Phosphate was added at 1 mM, recombinant hGYS1/GN1 protein was added at 50 nM to the substrate buffer, phosphoenolpyruvate (PEP) was added at 2 mM, UDP-Glucose was added at 0.8 mM, NADH) was added at 0.6 mM, and Pyruvate Kinase/Lactate Dehydrogenase was added at 20 units/mL. The reaction was initiated by mixing hGYS1 buffer and substrate buffer at a 1:1 ratio. Both buffers were plated using a liquid dispensing device with hGYS1 buffer plated first followed by the substrate buffer. Plates were spun briefly to eliminate air bubbles and are immediately read in continuous mode at an absorbance of 340 nm, for 10 time points in one-minute increments, for a total of 10 minutes. The slope from these 10 time points was normalized to the positive and negative control wells.
# (§1) Unless otherwise specified, IC50 values are reported as the geometric mean of at least 2 assay runs on separate days. Each run represents the average of a technical replicate, where each compound was assayed twice in the same plate.
# [1] = biological target: hGYS1 enzyme, glycogen synthesis in HeLa cells (Homo sapiens (Human), UniProt P13807); assay: GYS1 cell based assay (glycogen synthesis in HeLa cells, Glucose-glo); conditions: starved HeLa cells, 24 h incubation; geometric mean of at least 2 assay runs; read-out: Cellular IC50
# Sequence of hGYS1 enzyme, glycogen synthesis in HeLa cells (P13807 whole entry): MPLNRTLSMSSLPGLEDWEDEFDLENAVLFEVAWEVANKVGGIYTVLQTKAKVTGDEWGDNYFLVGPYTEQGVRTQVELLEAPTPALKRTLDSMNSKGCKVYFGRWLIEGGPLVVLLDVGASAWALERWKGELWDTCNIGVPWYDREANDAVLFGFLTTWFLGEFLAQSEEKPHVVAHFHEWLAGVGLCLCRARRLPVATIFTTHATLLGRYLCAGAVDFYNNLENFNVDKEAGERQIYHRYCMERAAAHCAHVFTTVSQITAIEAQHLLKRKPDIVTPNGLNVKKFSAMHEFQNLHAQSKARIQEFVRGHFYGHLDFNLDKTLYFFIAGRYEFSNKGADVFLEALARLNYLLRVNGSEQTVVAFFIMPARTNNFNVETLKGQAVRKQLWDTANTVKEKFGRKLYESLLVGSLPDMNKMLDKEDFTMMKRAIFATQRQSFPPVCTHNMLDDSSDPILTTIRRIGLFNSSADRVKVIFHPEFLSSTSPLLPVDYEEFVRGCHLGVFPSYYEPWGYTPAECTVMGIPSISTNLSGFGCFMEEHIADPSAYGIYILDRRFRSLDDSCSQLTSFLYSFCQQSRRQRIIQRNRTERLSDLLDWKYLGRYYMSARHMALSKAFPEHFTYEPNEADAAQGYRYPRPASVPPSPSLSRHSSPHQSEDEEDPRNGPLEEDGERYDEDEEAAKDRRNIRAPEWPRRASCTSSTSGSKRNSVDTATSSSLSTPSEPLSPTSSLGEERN
# Source text: The GYS1 cell based assay is a bioluminescent assay that quantifies the glucose resulting from glycogen digestion; the quantified glucose is an indirect measure of GYS1 glycogen synthesis. Newly synthesized glycogen is digested using Glucoamylase; the resulting glucose is quantified by using the Glucose-glo assay kit from Promega. Glucose-glo works by coupling glucose oxidation and NADH production with a bioluminescent system that is activated with NADH. Glucose is oxidized by Glucose dehydrogenase and the reaction reduces NAD+ to NADH; NADH activates Reductase which reduces a pro-luciferin Reductase Substrate to luciferin. Luciferin is detected in a luciferase reaction using Ultra-Glo rLuciferase and ATP, and the luminesce produced is proportional to the glucose in the sample. The luminescence is measured as a single point read in a plate reader.
# Compounds that inhibit the hGYS1 enzyme and, subsequently, the glycogen synthesis in cells, were tested using assay ready plates (white, clear bottom 384 well plates) in a final DMSO reaction volume of 1% DMSO. Compounds in the assay ready plates were mixed with media with no additives, except for 20 mM glucose prior to cell addition. HeLa cells were starved in media with no additives, except for 1× Glutamax for 24 h. Starved HeLa cells were plated, in a 1:1 ratio to the media in the assay ready plate and incubated for 24 h at 37° C. and 5% CO2. Cells were washed in 1×PBS buffer and lysed in lysis buffer containing 50% 1×PBS and 25% 0.3 N HCl of the final volume in the well or reaction volume; cells were incubated with lysis buffer for 10 minutes and quenched with the remaining 25% of the reaction volume that consisted of 450 mM Tris pH 8.0. Lysates were mixed in a 1:1 ratio with Glucoamylase in 100 mM Sodium Acetate buffer, pH 5.3; the mixture was incubated for 1 h at 37° C. The digested lysate was mixed in a 1:1 ratio with Glucose-glo detection mixture as per vendor recommendations (Luciferase detection buffer, Reductase, Reductase substrate, Glucose dehydrogenase, and NAD) in read-out plates (solid white 384-well plates) and incubated for 1 h at RT. The plates were read using a plate reader with luminescence capabilities. Each compound concentration Relative Luminescence Unit (RLU) was averaged and normalized to the average RLU of the positive and negative controls to obtain a percentage inhibition. The normalized data vs. concentration was plotted; to determine the half-maximal concentration (IC50), the Levenberg-Marquardt algorithm was used to fit a Hill equation to the dose response data.
# as §1, with “2 assay runs on separate days. […] Unless otherwise specified, IC50 values are reported as the geometric mean of at least two” for “2”
# Sequence of human GYS1 (P13807 whole entry): as above
# Sequence of human GYS1 (P46976 whole entry partner): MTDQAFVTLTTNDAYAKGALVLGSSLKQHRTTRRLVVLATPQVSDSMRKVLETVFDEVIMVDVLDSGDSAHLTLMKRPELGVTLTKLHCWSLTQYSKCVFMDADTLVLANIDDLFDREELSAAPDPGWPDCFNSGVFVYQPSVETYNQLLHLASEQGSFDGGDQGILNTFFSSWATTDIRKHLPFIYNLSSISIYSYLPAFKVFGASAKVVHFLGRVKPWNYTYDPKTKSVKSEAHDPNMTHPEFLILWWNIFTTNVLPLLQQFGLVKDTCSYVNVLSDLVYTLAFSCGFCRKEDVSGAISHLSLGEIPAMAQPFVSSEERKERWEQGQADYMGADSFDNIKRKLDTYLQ
IC50 (human GYS1) [nM],IC50 [1] [nM],Compound
836,> 100000,"CC(C)c1ccc([C@@H](NC(=O)C2CC(O)CC2C(=O)O)c2ccccc2)cc1 (single isomer, unassigned) [Compound 16, (1S or 1R,2R or 2S,4R or 4S)-4-hydroxy-2-(((S)-(4-isopropylphenyl)(phenyl)methyl)carbamoyl)cyclopentane-1-carboxylic acid]"
1960,> 100000,"CC(C)c1ccc([C@@H](NC(=O)C2CC(O)CC2C(=O)O)c2ccccc2)cc1 (single isomer, unassigned) [Compound 21, (1S or 1R,2R or 2S,4S or 4R)-4-hydroxy-2-(((S)-(4-isopropylphenyl)(phenyl)methyl)carbamoyl)cyclopentane-1-carboxylic acid]"
1150,24500,"CC(C)c1ccc([C@@H](NC(=O)C2CC(F)CC2C(=O)O)c2ccccc2)cc1 (single isomer, unassigned) [Compound 25, (1S or 1R,2R or 2S,4R or 4S)-4-fluoro-2-(((S)-(4-isopropylphenyl)(phenyl)methyl)carbamoyl)cyclopentane-1-carboxylic acid]"
3130,–,"CC(C)c1ccc([C@@H](NC(=O)C2CCC(C(=O)O)C2)c2ccccc2)cc1 (single isomer, unassigned) [Compound 33, (1S or 1R,3R or 3S)-3-(((S)-(4-isopropylphenyl)(phenyl)methyl)carbamoyl)cyclopentane-1-carboxylic acid]"
2390,–,"CC1(C)CC2(CC([C@@H](NC(=O)C3CCCC3C(=O)O)c3ccccc3)C2)C1 (single isomer, unassigned) [Compound 35, (1S or 1R,2R or 2S)-2-(((R)-(6,6-dimethylspiro[3.3]heptan-2-yl)(phenyl)methyl)carbamoyl)cyclopentane-1-carboxylic acid]"
1440,–,"CC(C)c1ccc([C@@H](NC(=O)[C@@H]2CCC[C@@H]2C(=O)O)c2cccc(-c3ccnn3C)c2)nc1F [Compound 1, (1S,2R)-2-(((S)-(6-fluoro-5-isopropylpyridin-2-yl)(3-(1-methyl-1H-pyrazol-5-yl)phenyl)methyl)carbamoyl)cyclopentane-1-carboxylic acid]"
426,–,"CC(C)c1ccc([C@@H](NC(=O)[C@@H]2CCC[C@@H]2C(=O)O)c2cccc(-c3cnco3)c2)nc1F [Compound 2, (1S,2R)-2-(((S)-(6-fluoro-5-isopropylpyridin-2-yl)(3-(oxazol-5-yl)phenyl)methyl)carbamoyl)cyclopentane-1-carboxylic acid]"
630,–,"CC(C)c1ccc([C@@H](NC(=O)[C@@H]2CCC[C@@H]2C(=O)O)c2cccc(-c3ccno3)c2)nc1F [Compound 3, (1S,2R)-2-(((S)-(6-fluoro-5-isopropylpyridin-2-yl)(3-(isoxazol-5-yl)phenyl)methyl)carbamoyl)cyclopentane-1-carboxylic acid]"
178,–,"CC(C)c1ccc([C@@H](NC(=O)[C@@H]2CCC[C@@H]2C(=O)O)c2cccc(-c3ccn[nH]3)c2)nc1F [Compound 4, (1S,2R)-2-(((S)-(3-(1H-pyrazol-5-yl)phenyl)(6-fluoro-5-isopropylpyridin-2-yl)methyl)carbamoyl)cyclopentane-1-carboxylic acid]"
84,–,"CC(C)c1ccc([C@@H](NC(=O)[C@@H]2CCC[C@@H]2C(=O)O)c2ccc3cn[nH]c3c2)nc1F [Compound 5, (1S,2R)-2-(((S)-(6-fluoro-5-isopropylpyridin-2-yl)(1H-indazol-6-yl)methyl)carbamoyl)cyclopentane-1-carboxylic acid]"
272,–,"O=C(O)[C@H]1CCC[C@H]1C(=O)N[C@@H](c1ccccc1)c1ccc(C2CC2)c(F)n1 [Compound 6, (1S,2R)-2-(((S)-(5-cyclopropyl-6-fluoropyridin-2-yl)(phenyl)methyl)carbamoyl)cyclopentane-1-carboxylic acid]"
884,> 10000,"CC(C)c1ccc([C@@H](NC(=O)[C@@H]2CCC[C@@H]2C(=O)O)c2cccc3c2[nH]c(=O)n3C)cc1F [Compound 7, (1S,2R)-2-(((R)-(3-fluoro-4-isopropylphenyl)(1-methyl-2-oxo-2,3-dihydro-1H-benzo[d]imidazol-4-yl)methyl)carbamoyl)cyclopentane-1-carboxylic acid]"
879,> 100000,"CC(C)c1ccc([C@@H](NC(=O)[C@@H]2CCC[C@@H]2C(=O)O)c2cccc3[nH]c(=O)oc23)cc1 [Compound 9, (1S,2R)-2-(((R)-(4-isopropylphenyl)(2-oxo-2,3-dihydrobenzo[d]oxazol-7-yl)methyl)carbamoyl)cyclopentane-1-carboxylic acid]"
2930,> 100000,"CC(C)c1ccc([C@@H](NC(=O)[C@@H]2CCC[C@@H]2C(=O)O)c2cccc3oc(=O)[nH]c23)cc1 [Compound 10, (1S,2R)-2-(((R)-(4-isopropylphenyl)(2-oxo-2,3-dihydrobenzo[d]oxazol-4-yl)methyl)carbamoyl)cyclopentane-1-carboxylic acid]"
1730,> 65800,"O=C(O)[C@H]1CCC[C@H]1C(=O)N[C@@H](c1ccccc1)c1ccc(C2CC2)cn1 [Compound 12, (1S,2R)-2-(((S)-(5-cyclopropylpyridin-2-yl)(phenyl)methyl)carbamoyl)cyclopentane-1-carboxylic acid]"
2360,> 68600,"CC(C)c1ccc([C@@H](NC(=O)[C@@H]2CCC[C@@H]2C(=O)O)c2ccccc2NC(=O)C2CNC2)cc1 [Compound 13, (1S,2R)-2-(((R)-(2-(azetidine-3-carboxamido)phenyl)(4-isopropylphenyl)methyl)carbamoyl)cyclopentane-1-carboxylic acid]"
1010,> 60800,"CC1(c2ccc([C@@H](NC(=O)[C@@H]3CCC[C@@H]3C(=O)O)c3ccccc3)cc2)CC1 [Compound 14, (1S,2R)-2-(((S)-(4-(1-methylcyclopropyl)phenyl)(phenyl)methyl)carbamoyl)cyclopentane-1-carboxylic acid]"
1130,–,"O=C(O)[C@H]1CCC[C@H]1C(=O)N[C@@H](c1ccccc1)c1ccc(C2CC2)cc1 [Compound 38, (1S,2R)-2-(((S)-(4-cyclopropylphenyl)(phenyl)methyl)carbamoyl)cyclopentane-1-carboxylic acid]"

Compound,IC50 (human GYS1) [nM],IC50 [1] [nM]
"CC(C)c1ccc([C@@H](NC(=O)C2CC(NC(=O)OC(C)(C)C)CC2C(=O)O)c2ccccc2)cc1 (single isomer, unassigned) [Compound 11, (1S or 1R,2R or 2S,4R or 4S)-4-((tert-butoxycarbonyl)amino)-2-(((S)-(4-isopropylphenyl)(phenyl)methyl)carbamoyl)cyclopentane-1-carboxylic acid]",1940,> 100000

# From patent US20260021085A1, “CYCLOALKYL CARBOXYLIC ACID DERIVATIVES AS INHIBITORS OF GLYCOGEN SYNTHASE 1 (GYS1) AND METHODS OF USE THEREOF” (Maze Therapeutics, Inc., priority 2022, published 2026)
